In patent US20070197599A1, “HYDROXYLAMINES AND DERIVATIVES AS ANTI-ANGIOGENIC AGENTS” (priority 2006, published 2007):

Tests used:
[1] = In vitro stability of Compound 1 in rat plasma; assay type: in vitro ADME; conditions: formed from OT-551 (Compound 1, 1000 ng/mL)
Experimental: (§1) The active metabolite of Compound 1 (Cyclopropanecarboxylic acid 1-hydroxy-2,2,6,6-tetramethyl-piperidin-4-yl ester) is TPH. The objective of this analysis was to determine the in vitro half-life of Compound 1 in rat, rabbit, dog, and human plasma under standardized incubation conditions.
(§2) Compound 1 was incubated with pooled rat, rabbit, dog, and human plasma for various times under standardized incubation conditions. Pre-labeled tubes containing pooled plasma from rats, rabbits, dogs, and humans were pre-incubated in a shaking 37° C. water bath. A Compound 1 solution was added to the tubes at a final concentration of 1000 ng/mL. Time zero samples (n=5) were immediately removed and transferred into tubes containing a stabilizer solution (DTPA, acetylcysteine and ascorbic acid), the LC/MS/MS assay internal standard and methanol. […] The tubes were vortexed, placed on ice, followed by centrifugation. One hundred-μL aliquots of the supernatant were transferred into HPLC sample vials. Additional tubes (n=5 at each time point) were incubated for 5, 10, 20, 30, 60, 120, and 240 minutes at 37° C. and thereafter processed. The amount of Compound 1 and TPH in each incubated sample was quantified using validated LC/MS/MS assays.

mouse V79 cells = conditions: Mitchell et al., 2000; cited from earlier work
[2] = In vitro stability of Compound 1 in human plasma; assay type: in vitro ADME; conditions: formed from OT-551 (Compound 1, 1000 ng/mL)
Experimental: as §1, §2

[3] = In vitro stability of Compound 1 in rabbit plasma; assay type: in vitro ADME; conditions: formed from OT-551 (Compound 1, 1000 ng/mL)
Experimental: as §1, §2

[4] = In vitro stability of Compound 1 in dog plasma; assay type: in vitro ADME; conditions: formed from OT-551 (Compound 1, 1000 ng/mL)
Experimental: as §1, §2

[5] = system: selenite induced cataract; conditions: mice; cited from earlier work
[6] = system: VEGF-induced angiogenesis in the CAM model; assay: VEGF-induced angiogenesis in the CAM model (TPH); assay type: in vivo, chick
Experimental: Neovascularization was examined by previously described methods (see references at the end of Example 5). Ten-day-old fertilized chicken eggs were incubated at 37° C. with 55% relative humidity. In the dark with the help of candling lamp and using a hypodermic needle a small hole was punctured in the shell covering the air sac. A second hole was punctured on the wider side of the egg above an avascular area of the embryonic membrane. An artificial air sac was created below the second hole by applying gentle vacuum to the first hole using a small rubber squeeze bulb. The vacuum caused the separation of chorioallantoic membrane (CAM) from the shell. An approximately 1.0 cm^2 widow was cut in the shell over the dropped CAM with the use of a mini drill. The underlying CAM was accessed through this small window.
Filter disks were punched using a small puncher from filter paper #1 (Whatman International, United Kingdom). Filter disks were soaked in 3 mg/ml cortisone acetate solution (95% ethanol and water) and air-dried under sterile condition. For inducing angiogenesis, sterile filter disks were saturated with bFGF (1 μg/ml) or other pro-angiogenesis factors and control disks were saturated with PBS without Calcium and Magnesium.
Using sterile forceps one filter/CAM was placed from the window. The window was sealed with Highland brand transparent tape. After 24 hr, 10-25 µl of test agent (inhibitor) was injected intravenously or added topically into the CAM membrane of bFGF or other pro-angiogenesis factors stimulated CAMs. • Control filter disks received PBS without Calcium and Magnesium. • After 48 hr, CAM tissue directly beneath filter disk was harvested and placed in a 35-mm Petri dish. Eight-Ten eggs/treatment group was used.
A pro-angiogenic agent (see Examples, below) was added to induce new blood vessel branches on the CAM of 10-day old embryos. Sterile disks of #1 filter paper (Whatman International, United Kingdom) were pre-treated with 3 mg/ml cortisone acetate, and air dried under sterile conditions. The disks were then suspended in PBS (Phosphate Buffered Saline) and placed on growing CAMs. Filters treated with TPH (TEMPOL-H) or TEMPOL and/or H2O2 or TPH and/or bFGF or VEGF were placed on the first day of the 3-day incubation.
Digital Images and Microscopic analysis of CAM sections: CAM sections from Petri dish were examined using SV6 stereomicroscope (Karl Zeiss) at 50× magnification. Digital images were captured using a 3-CCD color video camera system (Toshiba America, New York, N.Y.). These images were analyzed using Image-Pro Plus software (Media Cybernetics). The number of branch points in blood vessels within the circular region superimposed to the area of a filter disk was counted for each section. After incubation at 37° C. with 55% relative humidity for 3 days, the CAM tissue directly beneath each filter disk was resected from control and treated CAM samples. Tissues were washed three times with PBS. Sections were placed in a 35-mm Petri dish (Nalge Nunc; Rochester, N.Y.) and were examined under a SV6 stereomicroscope (Karl Zeiss; Thornwood, N.Y.) at 50× magnification. Digital images of CAM sections adjacent to filters were collected using a 3-CCD color video camera system (Toshiba America; New York, N.Y.) and analyzed with the Image-Pro Plus software (Media Cybernetics; Silver Spring, Md.). The number of vessel branch points contained in a circular region equal to the area of a filter disk was counted for each section. Percent inhibition data are expressed as the quotient of the experimental value minus the negative control value divided by the difference between the positive control value and the negative control value. One image was counted in each CAM preparation, and findings from eight CAM preparations were analyzed for each treatment condition. In addition, each experiment was performed three times. […]

Compound: CC1(C)CC(O)CC(C)(C)N1O [TPH]
- Concentration of TPH in plasma ([1]; incubation 0 min): 10.23 ± 1.59 ng/mL
- Concentration of TPH in plasma ([1]; incubation 5 min): 30.47 ± 1.65 ng/mL
- Concentration of TPH in plasma ([1]; incubation 10 min): 50.91 ± 2.11 ng/mL
- Concentration of TPH in plasma ([1]; incubation 20 min): 86.30 ± 3.30 ng/mL
- Concentration of TPH in plasma ([1]; incubation 30 min): 119.63 ± 7.08 ng/mL
- Concentration of TPH in plasma ([1]; incubation 60 min): 201.94 ± 4.19 ng/mL
- Concentration of TPH in plasma ([1]; incubation 120 min): 304.66 ± 7.27 ng/mL
- Concentration of TPH in plasma ([1]; incubation 240 min): 362.66 ± 7.50 ng/mL
- radioprotection of mouse V79 cells (mouse V79 cells): did not provide any radioprotection
- Concentration of TPH in plasma ([2]; incubation 0 min): 48.76 ± 2.84 ng/mL
- Concentration of TPH in plasma ([2]; incubation 5 min): 186.71 ± 4.58 ng/mL
- Concentration of TPH in plasma ([2]; incubation 10 min): 241.99 ± 8.05 ng/mL
- Concentration of TPH in plasma ([2]; incubation 20 min): 310.10 ± 8.54 ng/mL
- Concentration of TPH in plasma ([2]; incubation 30 min): 365.53 ± 14.44 ng/mL
- Concentration of TPH in plasma ([2]; incubation 60 min): 449.85 ± 9.73 ng/mL
- Concentration of TPH in plasma ([2]; incubation 120 min): 519.12 ± 19.52 ng/mL
- Concentration of TPH in plasma ([2]; incubation 240 min): 501.39 ± 11.33 ng/mL
- Concentration of TPH in plasma ([3]; incubation 0 min): 270.55 ± 35.45 ng/mL
- Concentration of TPH in plasma ([3]; incubation 5 min): 587.17 ± 21.99 ng/mL
- Concentration of TPH in plasma ([3]; incubation 10 min): 604.21 ± 21.99 ng/mL
- Concentration of TPH in plasma ([3]; incubation 20 min): 590.06 ± 40.97 ng/mL
- Concentration of TPH in plasma ([3]; incubation 30 min): 533.01 ± 117.40 ng/mL
- Concentration of TPH in plasma ([3]; incubation 60 min): 569.19 ± 32.96 ng/mL
- Concentration of TPH in plasma ([3]; incubation 120 min): 525.63 ± 10.31 ng/mL
- Concentration of TPH in plasma ([3]; incubation 240 min): 477.54 ± 40.95 ng/mL
- Concentration of TPH in plasma ([4]; incubation 0 min): 0.00 ± 0.00 ng/mL
- Concentration of TPH in plasma ([4]; incubation 5 min): 5.85 ± 0.73 ng/mL
- Concentration of TPH in plasma ([4]; incubation 10 min): 8.77 ± 0.65 ng/mL
- Concentration of TPH in plasma ([4]; incubation 20 min): 12.79 ± 0.74 ng/mL
- Concentration of TPH in plasma ([4]; incubation 30 min): 16.22 ± 0.67 ng/mL
- Concentration of TPH in plasma ([4]; incubation 60 min): 25.68 ± 1.04 ng/mL
- Concentration of TPH in plasma ([4]; incubation 120 min): 39.31 ± 1.09 ng/mL
- Concentration of TPH in plasma ([4]; incubation 240 min): 53.92 ± 1.68 ng/mL
- prevention of selenite induced cataract [5]: effective
- inhibition of VEGF-induced angiogenesis ([6]; 100-800 μg (Table 3)): dose-dependent inhibition
- anti-angiogenesis efficacy against VEGF-induced angiogenesis as compared with bFGF ([6]; Tables 2 and 3): much greater
- Mean % Inhibition ± SD ([6]; VEGF (2 μg/ml) + TPH 100 μg): 37.6 ± 6.9 %
- Mean Branch points ± SD ([6]; VEGF (2 μg/ml) + TPH 100 μg): 154.8 ± 7.5
- Mean % Inhibition ± SD ([6]; VEGF (2 μg/ml) + TPH 200 μg): 42 ± 3.5 %
- Mean Branch points ± SD ([6]; VEGF (2 μg/ml) + TPH 200 μg): 150 ± 3.8
- Mean % Inhibition ± SD ([6]; VEGF (2 μg/ml) + TPH 400 μg): 53.3 ± 3.3 %
- Mean Branch points ± SD ([6]; VEGF (2 μg/ml) + TPH 400 μg): 137.8 ± 3.0
- Mean % Inhibition ± SD ([6]; VEGF (2 μg/ml) + TPH 800 μg): 70.7 ± 9.1 %
- Mean Branch points ± SD ([6]; VEGF (2 μg/ml) + TPH 800 μg): 118.8 ± 9.9
